From patent US20250188123A1, “PROTEASE INHIBITORS” (Regents of the University of Minnesota, priority 2022, published 2025)
pKi: −log10 of the molar value. Read-outs that look alike come from different tables or passages of the source. *1 amine or outer side, *2 acyl side, *3 side chain or, on linkers, in order; H or OH if unused. Where a SMILES comes first, the peptide text is derived from it. [ ]: non-standard residue; d: D form. ξ: configuration not given here. ξTHIQ1CO(6-Me) = Cc1ccc2c(c1)CCNC2C(=O)O; X3 = O=C([C@@H]1Cc2ccccc2N1[*:1])[*:2]; Aad = N[C@@H](CCCC(=O)O)C(=O)O; Tle = CC(C)(C)[C@H](N)C(=O)O

Experiments:
human caspase-2 = molecular target: T1, human caspase-2 (Homo sapiens, UniProt P42575); test: Fluorescent enzyme assay, Casp2 (AFC substrate Z-VDVAD-AFC); format: biochemical; conditions: for Ki: mean ± SEM of N independent experiments, each in duplicate or triplicate, read-out: pKi ± SEM Casp 2 (converted); for Ki (Casp3) / Ki (Casp2): selectivity Casp2 over Casp3
T1 construct: inferred from pET23b, XhoI reverse primer without stop codon, Ni-NTA purification) (C); made in house; host or cells: E. coli BL21(DE3)
T1 sequence (P42575 170-452): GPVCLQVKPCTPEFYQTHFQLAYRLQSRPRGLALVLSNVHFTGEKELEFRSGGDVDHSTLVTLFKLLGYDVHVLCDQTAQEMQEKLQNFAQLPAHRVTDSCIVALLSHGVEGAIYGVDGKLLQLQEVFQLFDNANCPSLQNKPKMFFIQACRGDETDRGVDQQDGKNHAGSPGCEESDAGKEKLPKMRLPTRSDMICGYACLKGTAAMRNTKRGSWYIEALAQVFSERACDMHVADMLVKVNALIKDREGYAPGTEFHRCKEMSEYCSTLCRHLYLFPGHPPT
Description: (§1) Human recombinant Casp1, 6, 7, and 9 were purchased from BioVision (Milpitas/CA, USA). AFC fluorogenic substrates and control peptides (AcYVAD-CHO, AcVDVAD-CHO, AcDEVD-CHO, AcVEID-CHO, and AcLEHD-CHO) were purchased from Bachem (Torrance/CA, USA). The pET23b vector encoding human caspase-3 was a gift of Dr. Michelle Arkin at University of California, San Francisco. Expression and purification of Casp3 was guided by previously described protocols (Denault J-B, Salvesen G S., Current Protocols in Protein Science, 2002, 30(1), 21.13. 1-21.13. 15). Briefly, the plasmid was transformed into E. coli Rosetta 2 pLyss DE3 cells that were cultured at 1 L scale in shake flasks. Five hours post induction with IPTG, cells were harvested through centrifugation (4000 g for 10 minutes at 4° C.), lysed by sonication, and centrifuged again for 30 minutes at 20000 g. Supernatant was resuspended in buffer (100 mM Tris pH 8.0, 500 mM NaCl). Purification was achieved by nickel-affinity chromatography followed by ion-exchange chromatography. Protein was diluted to 0.5 mg/mL and stored at −80° C. in 100 mM Tris, pH 8.0 supplemented with 10% glycerol. The typical yield for the expression, isolation, and purification was approximately 3 mg/L. The DNA encoding human caspase-2 (hCASP2, amino acids 170-452, free of the N-terminal caspase activation and recruitment domain) open reading frame (ORF) was amplified via polymerase chain reaction (PCR) from full-length hCASP2 cDNA (Origene, Rockville, MD; Cat #SC321316) using following primers: forward, 5′-[…]-3′; reverse, 5′-[…]-3′. The PCR fragment was then cloned into the pET23b vector (Millipore Sigma, Burlington, MA), and DNA sequence was verified by classic Sanger sequencing analyses. Site-directed mutageneses were carried out using a QuikChange II XL site-directed mutagenesis kit (Agilent Technologies, Santa Clara, CA; Cat #200522) according to the manufacturer's instruction. Expression of recombinant hCASP2 was induced using 150 μM isopropyl-β-D-thiogalactopyranoside (IPTG) (Promega, Madison, WI) in the BL21(DE3) E. coli strain (Millipore Sigma) at 16° C. for 14 hours while shaking at 250 rpm. Cells were then harvested via centrifugation at 6,000 g, 4° C. for 15 minutes, followed by lysis via sonication. Proteins were initially purified using HisPur Ni-NTA resin (Thermo Fisher Scientific, Waltham, MA) followed by metal chelating chromatography (5 mL HiTrap Chelating HP columns (GE Healthcare Life Sciences, Piscataway, NJ)). Further purification was carried out using anion exchange chromatography (5 mL HiTrap Q HP columns (GE Healthcare Life Sciences)) for hCASP2. Proteins were stored in 1× phosphate-buffered saline (pH 7.4) at 10 mg/mL (concentration determined using a BCA assay (Thermo Fisher Scientific)), −80° C. until further use.
(§2) KM values were determined experimentally to be the following: Casp1: 5.9 μM; Casp2: 37.1 μM; Casp3: 7.6 μM; Casp6: 14.5 μM; Casp7: 13.8 μM; Casp9: 149.1 μM. Enzymes were diluted in buffer: 100 mM MES (pH 6.5) for Casp2 and or 100 mM HEPES (pH 7.0) for all other caspases, plus 150 mM NaCl, 0.1% CHAPS, 1.5% sucrose, 10 mM DTT. Enzyme concentrations were 0.05 U/well for Casp1, 6, and 7; 0.5 U/well for Casp9, 20 nM/well for Casp2, and 2 nM/well for Casp3. Enzyme in buffer (19 μL) was added per well in a black 384-well Corning 4514 assay plate. Test compounds were serially diluted in dimethyl sulfoxide (DMSO) and plated in duplicate into a Corning 3656 transfer plate. Test compound was added to assay plates in 0.5 μL aliquots per well and mixed 10 times using a BiomekFX (Beckman Coulter). Compound and enzyme mixture was incubated at 37° C. for 5 minutes for aldehyde warheads and 45 minutes for cyano warheads. […]

human caspase-3 = molecular target: T2, human caspase-3 (Homo sapiens, UniProt P42574); test: Fluorescent enzyme assay, Casp3 (AFC substrate AcDEVD-AFC); format: biochemical; conditions: for Ki: mean ± SEM of N independent experiments, each in duplicate or triplicate, read-out: pKi ± SEM Casp 3 (converted)
T2 construct: made in house; host or cells: E. coli Rosetta 2 pLysS DE3
T2 sequence (P42574 29-277): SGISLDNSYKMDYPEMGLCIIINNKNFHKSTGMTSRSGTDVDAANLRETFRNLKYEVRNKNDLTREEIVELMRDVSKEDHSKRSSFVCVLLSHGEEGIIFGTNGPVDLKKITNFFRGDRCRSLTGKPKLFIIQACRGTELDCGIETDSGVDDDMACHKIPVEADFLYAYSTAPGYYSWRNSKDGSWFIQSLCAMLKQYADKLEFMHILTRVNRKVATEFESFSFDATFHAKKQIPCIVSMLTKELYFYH
Description: as §1, §2

Ki (human caspase-2) [µM]	Ki (human caspase-3) [µM]	Structure (SMILES)	Ki (Casp3) / Ki (Casp2) (human caspase-2)	pKi (human caspase-2)	pKi (human caspase-3)
0.38	> 100	CC(=O)N1c2ccccc2C[C@H]1C(=O)N[C@@H](CCCC(=O)O)C(=O)N[C@H](C(=O)N1CCc2cc(C)ccc2[C@H]1C(=O)N[C@H](C=O)CC(=O)O)C(C)C [Compound 9, (S)-5-((S)-1-acetylindoline-2-carboxamido)-6-(((S)-1-((S)-1-(((S)-1-carboxy-3-oxopropan-2-yl)carbamoyl)-6-methyl-3,4-dihydroisoquinolin-2(1H)-yl)-3-methyl-1-oxobutan-2-yl)amino)-6-oxohexanoic acid]	263		
2.14	> 100	CC(=O)N1c2ccccc2C[C@H]1C(=O)N[C@@H](CCCC(=O)O)C(=O)N[C@H](C(=O)N1CCc2cc(C)ccc2[C@H]1C(=O)N[C@H](C=O)CC(=O)O)C(C)(C)C [Compound 10, (S)-5-((S)-1-acetylindoline-2-carboxamido)-6-(((S)-1-((S)-1-(((S)-1-carboxy-3-oxopropan-2-yl)carbamoyl)-6-methyl-3,4-dihydroisoquinolin-2(1H)-yl)-3,3-dimethyl-1-oxobutan-2-yl)amino)-6-oxohexanoic acid]	47		
		Cc1ccc2c(c1)CCN(C(=O)[C@@H](NC(=O)[C@H](CCCC(=O)O)NC(=O)[C@@H]1Cc3ccccc3N1)C(C)(C)C)C2C(=O)N[C@H](C=O)CC(=O)O (stereo partly drawn) [Compound 11, (S)-6-(((S)-1-((S)-1-(((S)-1-carboxy-3-oxopropan-2-yl)carbamoyl)-6-methyl-3,4-dihydroisoquinolin-2(1H)-yl)-3,3-dimethyl-1-oxobutan-2-yl)amino)-5-((S)-indoline-2-carboxamido)-6-oxohexanoic acid hydrotrifluoroacetate] (H-[X3][Aad][Tle][ξTHIQ1CO(6-Me)]D-aldehyde)	24	5.38	< 4.00
		Cc1ccc2c(c1)CCN(C(=O)[C@@H](NC(=O)[C@H](CCCC(=O)O)NC(=O)[C@@H]1Nc3ccc(F)cc3C1(C)C)C(C)C)[C@@H]2C(=O)N[C@H](C=O)CC(=O)O [Compound 12, (S)-6-(((S)-1-((S)-1-(((S)-1-carboxy-3-oxopropan-2-yl)carbamoyl)-6-methyl-3,4-dihydroisoquinolin-2(1H)-yl)-3-methyl-1-oxobutan-2-yl)amino)-5-((R)-5-fluoro-3,3-dimethylindoline-2-carboxamido)-6-oxohexanoic acid hydrotrifluoroacetate]	24	5.38	< 4.00
		Cc1ccc2c(c1)CCN(C(=O)[C@@H](NC(=O)[C@H](CCCC(=O)O)NC(=O)[C@H]1Nc3ccc(F)cc3C1(C)C)C(C)C)C2C(=O)N[C@H](C=O)CC(=O)O (stereo partly drawn) [Compound 13, (S)-6-(((S)-1-((S)-1-(((S)-1-carboxy-3-oxopropan-2-yl)carbamoyl)-6-methyl-3,4-dihydroisoquinolin-2(1H)-yl)-3-methyl-1-oxobutan-2-yl)amino)-5-((S)-5-fluoro-3,3-dimethylindoline-2-carboxamido)-6-oxohexanoic acid hydrotrifluoroacetate]	155	6.19	< 4.00
		Cc1ccc2c(c1F)CCN(C(=O)[C@@H](NC(=O)[C@H](CCCC(=O)O)NC(=O)[C@@H]1Cc3ccccc3N1)C(C)C)C2C(=O)N[C@H](C=O)CC(=O)O (stereo partly drawn) [Compound 14, (S)-6-(((S)-1-((S)-1-(((S)-1-carboxy-3-oxopropan-2-yl)carbamoyl)-5-fluoro-6-methyl-3,4-dihydroisoquinolin-2(1H)-yl)-3-methyl-1-oxobutan-2-yl)amino)-5-((S)-indoline-2-carboxamido)-6-oxohexanoic acid hydrotrifluoroacetate]	525	6.72	< 4.00
		Cc1ccc2c(c1F)CCN(C(=O)[C@@H](NC(=O)[C@H](CCCC(=O)O)NC(=O)[C@H]1Nc3ccc(F)cc3C1(C)C)C(C)C)C2C(=O)N[C@H](C=O)CC(=O)O (stereo partly drawn) [Compound 15, (S)-6-(((S)-1-((S)-1-(((S)-1-carboxy-3-oxopropan-2-yl)carbamoyl)-5-fluoro-6-methyl-3,4-dihydroisoquinolin-2(1H)-yl)-3-methyl-1-oxobutan-2-yl)amino)-5-((S)-5-fluoro-3,3-dimethylindoline-2-carboxamido)-6-oxohexanoic acid hydrotrifluoroacetate]	575	6.76	< 4.00
